# Laboratory results reported in patent US10118935B2, “Melampomagnolide B dimers” (priority 2014, dated 2018).
# Assays:
# MDA-MB-231/ATCC [1] = test system: MDA-MB-231/ATCC
# DU-145 [2] = assay: NCI 60 cell line five dose, Prostate Cancer
# HCT-116 [3] = test system: HCT-116
# OVCAR-4 [4] = test system: OVCAR-4
# NCI/ADR-RES = assay: NCI 60 cell line five dose, Ovarian Cancer; settings: NCI/ADR-RES
# NCI-H226 = assay: NCI 60 cell line five dose, Non-Small Cell Lung Cancer
# MDA-MB-231/ATCC [5] = assay: NCI 60 cell line five dose, Breast Cancer
# SK-MEL-5 = assay: NCI 60 cell line five dose, Melanoma; settings: SK-MEL-5
# HCT-116 [6] = assay: NCI 60 cell line five dose, Colon Cancer
# OVCAR-4 [7] = assay: NCI 60 cell line five dose, Ovarian Cancer
# DU-145 [8] = test system: DU-145
# SN12C = assay: NCI 60 cell line five dose, Renal Cancer
# SF-268 = assay: NCI 60 cell line five dose, CNS Cancer
# SF-539 = assay: NCI 60 cell line five dose, CNS Cancer
# M9ENL AML cell lines = settings: 10 μM; M9ENL cell line; FIG. 4
smiles,measurement,setting,value
"C=C1C(=O)O[C@H]2[C@H]1CC/C(COC(=O)CCC(=O)NCCCCCCCCNC(=O)CCC(=O)OC/C1=C/CC[C@@]3(C)O[C@H]3[C@H]3OC(=O)C(=C)[C@@H]3CC1)=C\CC[C@@]1(C)O[C@@H]21 [JVM 2-87, bis(((1aR,7aS,10aS,10bS,E)-1a-Methyl-8-methylene-9-oxo-1a,2,3,6,7,7a,8,9,10a,1b-decahydrooxireno[2′,3′:9,10]cyclodeca[1,2-b]furan-5-yl)methyl)4,4′-(octane-1,8-diylbis(azanediyl))bis(4-oxobutanoate)]",CC50,HCT-15,43.2 µM
same,CC50,HOP-92,6.77 µM
same,CC50,LOX IMVI,5.56 µM
same,CC50,MDA-MB-231/ATCC [1],9.88 µM
same,CC50,RXF 393,7.27 µM
same,CC50,MOLT-4,> 100 µM
same,GI50,DU-145 [2],1.92 µM
same,TGI,DU-145 [2],3.61 µM
same,CC50,OVCAR-8,> 100 µM
same,CC50,HCT-116 [3],5.41 µM
same,CC50,MDA-MB-468,21.3 µM
same,CC50,OVCAR-4 [4],9.38 µM
same,CC50,MDA-MB-435,7.58 µM
same,GI50,NCI/ADR-RES,33.5 µM
same,TGI,NCI/ADR-RES,>100 µM
same,GI50,NCI-H226,2.06 µM
same,TGI,NCI-H226,4.95 µM
same,GI50,MDA-MB-231/ATCC [5],1.97 µM
same,TGI,MDA-MB-231/ATCC [5],4.41 µM
same,CC50,HS 578T,> 100 µM
same,CC50,786-0,6.67 µM
same,GI50,SK-MEL-5,3.13 µM
same,TGI,SK-MEL-5,11.1 µM
same,GI50,HCT-116 [6],1.54 µM
same,TGI,HCT-116 [6],2.88 µM
same,CC50,SK-MEL-2,9.38 µM
same,GI50,OVCAR-4 [7],1.64 µM
same,TGI,OVCAR-4 [7],3.92 µM
same,CC50,SF-295,56.8 µM
same,CC50,CCRF-CEM,> 100 µM
same,CC50,DU-145 [8],6.81 µM
same,CC50,SK-OV-3,47.9 µM
same,CC50,BT-549,5.12 µM
same,CC50,COLO 205,7.28 µM
same,CC50,ACHN,34.7 µM
same,CC50,SNB-75,26.9 µM
same,CC50,K-562,> 100 µM
same,CC50,HT29,5.92 µM
same,GI50,SN12C,3.74 µM
same,TGI,SN12C,14.8 µM
same,CC50,UACC-62,8.94 µM
same,GI50,SF-268,3.34 µM
same,TGI,SF-268,11.6 µM
same,GI50,SF-539,2.43 µM
same,TGI,SF-539,5.76 µM
"C=C1C(=O)O[C@H]2[C@H]1CC/C(COC(=O)CCC(=O)NCCCCCCCCCNC(=O)CCC(=O)OC/C1=C/CC[C@@]3(C)O[C@H]3[C@H]3OC(=O)C(=C)[C@@H]3CC1)=C\CC[C@@]1(C)O[C@@H]21 [JVM 2-92, bis(((1aR,7aS,10aS,10bS,E)-1a-Methyl-8-methylene-9-oxo-1a,2,3,6,7,7a,8,9,10a,10b-decahydrooxireno[2′,3′:9,10]cyclodeca[1,2-b]furan-5-yl)methyl)4,4′-(nonane-1,9-diylbis(azanediyl))bis (4-oxobutanoate)]",CC50,HCT-15,46 µM
same,CC50,HOP-92,6.64 µM
same,CC50,LOX IMVI,4.06 µM
same,CC50,MDA-MB-231/ATCC [1],13.3 µM
same,CC50,RXF 393,6.21 µM
same,CC50,MOLT-4,> 100 µM
same,GI50,DU-145 [2],1.75 µM
same,TGI,DU-145 [2],3.18 µM
same,CC50,OVCAR-8,> 100 µM
same,CC50,HCT-116 [3],4.97 µM
same,CC50,MDA-MB-468,7.04 µM
same,CC50,OVCAR-4 [4],8.06 µM
same,CC50,MDA-MB-435,7.25 µM
same,GI50,NCI/ADR-RES,26.7 µM
same,TGI,NCI/ADR-RES,>100 µM
same,GI50,NCI-H226,1.9 µM
same,TGI,NCI-H226,4.05 µM
same,GI50,MDA-MB-231/ATCC [5],1.58 µM
same,TGI,MDA-MB-231/ATCC [5],4.05 µM
same,CC50,HS 578T,> 100 µM
same,CC50,786-0,6.04 µM
same,GI50,SK-MEL-5,1.88 µM
same,TGI,SK-MEL-5,4.19 µM
same,GI50,HCT-116 [6],0.86 µM
same,TGI,HCT-116 [6],2.18 µM
same,CC50,SK-MEL-2,8.13 µM
same,GI50,OVCAR-4 [7],1.48 µM
same,TGI,OVCAR-4 [7],3.46 µM
same,result compared to parthenolide,M9ENL AML cell lines,promising result
same,CC50,SF-295,52 µM
same,CC50,CCRF-CEM,> 100 µM
same,CC50,DU-145 [8],5.78 µM
same,CC50,SK-OV-3,49.1 µM
same,CC50,BT-549,4.65 µM
same,CC50,COLO 205,8.15 µM
same,CC50,ACHN,17.2 µM
same,CC50,SNB-75,15.6 µM
same,CC50,K-562,> 100 µM
same,CC50,HT29,5.69 µM
same,GI50,SN12C,2.69 µM
same,TGI,SN12C,10.3 µM
same,CC50,UACC-62,8.44 µM
same,GI50,SF-268,2.92 µM
same,TGI,SF-268,10.1 µM
same,GI50,SF-539,1.85 µM
same,TGI,SF-539,4.29 µM
